How the values were obtained:
Set-up in all cases: scale not given: the % may be the effect or the level left
[1] = target: T1, Tyrosine-protein kinase Mer (Homo sapiens) (UniProt Q12866); assay: Inhibition of human c-MER assessed as enzyme activity at 1 uM using poly[Glu:Tyr] (4:1) as substrate preincubated for 20 mins followed by [gamma-33P]-ATP addition and measured after 120 mins by radiometric Hot-SpotSM Kinase assay relative to control
T1 sequence (whole entry): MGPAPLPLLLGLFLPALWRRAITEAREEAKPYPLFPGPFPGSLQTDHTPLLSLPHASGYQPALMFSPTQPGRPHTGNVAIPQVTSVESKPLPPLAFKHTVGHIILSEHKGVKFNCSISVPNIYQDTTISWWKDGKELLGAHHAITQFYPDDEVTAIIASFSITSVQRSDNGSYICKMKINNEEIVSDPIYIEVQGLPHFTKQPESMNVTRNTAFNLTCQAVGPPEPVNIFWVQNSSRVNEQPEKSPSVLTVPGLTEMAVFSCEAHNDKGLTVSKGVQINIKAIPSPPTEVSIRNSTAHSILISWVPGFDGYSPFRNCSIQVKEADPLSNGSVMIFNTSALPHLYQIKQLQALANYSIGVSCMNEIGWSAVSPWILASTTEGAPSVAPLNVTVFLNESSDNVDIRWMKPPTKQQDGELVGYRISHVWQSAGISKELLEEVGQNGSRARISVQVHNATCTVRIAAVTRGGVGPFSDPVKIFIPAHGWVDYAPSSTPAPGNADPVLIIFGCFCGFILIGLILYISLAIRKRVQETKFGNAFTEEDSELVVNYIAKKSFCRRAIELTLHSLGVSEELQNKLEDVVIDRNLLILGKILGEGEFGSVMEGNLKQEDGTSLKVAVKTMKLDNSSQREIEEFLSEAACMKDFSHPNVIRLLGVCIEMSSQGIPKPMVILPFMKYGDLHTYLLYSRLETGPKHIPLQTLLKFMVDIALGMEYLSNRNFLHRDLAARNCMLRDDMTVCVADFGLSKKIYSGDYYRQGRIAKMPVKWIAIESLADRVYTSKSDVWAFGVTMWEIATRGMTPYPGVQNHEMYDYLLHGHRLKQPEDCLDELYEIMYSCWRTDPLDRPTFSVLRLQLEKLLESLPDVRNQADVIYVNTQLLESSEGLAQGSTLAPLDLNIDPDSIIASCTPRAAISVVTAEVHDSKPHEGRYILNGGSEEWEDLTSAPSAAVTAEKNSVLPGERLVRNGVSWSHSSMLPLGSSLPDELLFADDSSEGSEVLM

[2] = target: Mitogen-activated protein kinase 1 (Homo sapiens) (UniProt P28482); assay: Inhibition of human ERK2 assessed as enzyme activity at 1 uM using myelin basic protein as substrate preincubated for 20 mins followed by [gamma-33P]-ATP addition and measured after 120 mins by radiometric Hot-SpotSM Kinase assay relative to control
Chain of Mitogen-activated protein kinase 1 (Homo sapiens) (P28482 whole entry): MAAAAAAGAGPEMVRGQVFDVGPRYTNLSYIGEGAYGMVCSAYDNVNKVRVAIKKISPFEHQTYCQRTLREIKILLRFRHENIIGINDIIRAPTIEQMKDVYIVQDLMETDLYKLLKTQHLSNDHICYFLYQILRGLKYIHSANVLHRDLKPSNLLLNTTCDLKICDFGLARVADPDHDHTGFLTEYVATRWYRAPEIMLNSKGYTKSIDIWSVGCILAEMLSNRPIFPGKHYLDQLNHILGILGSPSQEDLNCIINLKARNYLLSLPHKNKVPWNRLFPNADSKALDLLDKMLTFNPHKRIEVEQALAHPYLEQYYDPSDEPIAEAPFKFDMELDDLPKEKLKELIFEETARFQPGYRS

[3] = target: MAP kinase-activated protein kinase 2 (Homo sapiens) (UniProt P49137); assay: Inhibition of human MAPKAPK2 assessed as enzyme activity at 1 uM using KKLNRTLSVA as substrate preincubated for 20 mins followed by [gamma-33P]-ATP addition and measured after 120 mins by radiometric Hot-SpotSM Kinase assay relative to control
Chain of MAP kinase-activated protein kinase 2 (Homo sapiens) (P49137 whole entry, looked up): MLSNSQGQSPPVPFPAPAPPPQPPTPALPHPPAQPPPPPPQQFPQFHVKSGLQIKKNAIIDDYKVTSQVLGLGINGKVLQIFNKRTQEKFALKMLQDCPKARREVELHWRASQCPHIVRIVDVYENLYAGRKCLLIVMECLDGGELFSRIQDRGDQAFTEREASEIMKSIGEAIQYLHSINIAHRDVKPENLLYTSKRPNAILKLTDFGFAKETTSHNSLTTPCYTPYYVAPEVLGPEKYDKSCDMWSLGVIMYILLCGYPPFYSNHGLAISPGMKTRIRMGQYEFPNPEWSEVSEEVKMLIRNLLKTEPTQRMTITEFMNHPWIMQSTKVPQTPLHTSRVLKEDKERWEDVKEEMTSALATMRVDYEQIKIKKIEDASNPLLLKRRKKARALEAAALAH

[4] = target: Mitogen-activated protein kinase 10 (Homo sapiens) (UniProt P53779); assay: Inhibition of human JNK3 assessed as enzyme activity at 1 uM using ATF2 as substrate preincubated for 20 mins followed by [gamma-33P]-ATP addition and measured after 120 mins by radiometric Hot-SpotSM Kinase assay relative to control
Chain of Mitogen-activated protein kinase 10 (Homo sapiens) (P53779 whole entry): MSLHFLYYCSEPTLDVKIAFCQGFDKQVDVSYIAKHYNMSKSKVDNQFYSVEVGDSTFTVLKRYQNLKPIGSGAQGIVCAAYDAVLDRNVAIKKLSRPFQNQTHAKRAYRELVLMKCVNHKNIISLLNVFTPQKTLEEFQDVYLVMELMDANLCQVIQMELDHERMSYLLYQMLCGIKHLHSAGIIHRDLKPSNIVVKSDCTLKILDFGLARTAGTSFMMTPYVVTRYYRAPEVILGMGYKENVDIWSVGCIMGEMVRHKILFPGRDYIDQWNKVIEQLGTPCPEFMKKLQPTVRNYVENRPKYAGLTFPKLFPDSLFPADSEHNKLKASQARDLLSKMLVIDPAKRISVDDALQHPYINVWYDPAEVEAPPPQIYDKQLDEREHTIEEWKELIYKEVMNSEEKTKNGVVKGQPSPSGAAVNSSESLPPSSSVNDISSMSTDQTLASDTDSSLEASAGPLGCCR

[5] = target: T2, NUAK family SNF1-like kinase 1 (Homo sapiens) (UniProt O60285); assay: Inhibition of human ARK5 assessed as enzyme activity at 1 uM using KKKVSRSGLYRSPSMPENLNRPR as substrate preincubated for 20 mins followed by [gamma-33P]-ATP addition and measured after 120 mins by radiometric Hot-SpotSM Kinase assay relative to control
T2 sequence (whole entry): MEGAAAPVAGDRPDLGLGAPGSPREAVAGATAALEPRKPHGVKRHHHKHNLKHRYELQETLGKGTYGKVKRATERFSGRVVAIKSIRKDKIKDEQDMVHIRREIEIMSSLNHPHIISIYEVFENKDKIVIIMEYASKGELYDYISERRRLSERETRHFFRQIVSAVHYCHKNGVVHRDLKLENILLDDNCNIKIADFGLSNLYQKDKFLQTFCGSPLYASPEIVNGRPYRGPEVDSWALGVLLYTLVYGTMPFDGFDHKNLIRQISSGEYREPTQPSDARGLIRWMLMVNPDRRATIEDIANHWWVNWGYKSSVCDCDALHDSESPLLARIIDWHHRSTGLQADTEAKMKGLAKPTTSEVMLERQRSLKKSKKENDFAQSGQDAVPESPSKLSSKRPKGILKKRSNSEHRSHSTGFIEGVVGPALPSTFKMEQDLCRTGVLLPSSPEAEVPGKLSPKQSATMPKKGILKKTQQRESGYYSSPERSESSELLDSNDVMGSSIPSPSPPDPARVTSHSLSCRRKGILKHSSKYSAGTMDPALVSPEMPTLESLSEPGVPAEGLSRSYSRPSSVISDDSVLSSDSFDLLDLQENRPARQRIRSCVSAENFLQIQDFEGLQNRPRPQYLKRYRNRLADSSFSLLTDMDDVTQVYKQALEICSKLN

[6] = target: G protein-coupled receptor kinase 6 (Homo sapiens) (UniProt P43250); assay: Inhibition of human GRK6 assessed as enzyme activity at 1 uM using casein as substrate preincubated for 20 mins followed by [gamma-33P]-ATP addition and measured after 120 mins by radiometric Hot-SpotSM Kinase assay relative to control
Chain of G protein-coupled receptor kinase 6 (Homo sapiens) (P43250 whole entry, looked up): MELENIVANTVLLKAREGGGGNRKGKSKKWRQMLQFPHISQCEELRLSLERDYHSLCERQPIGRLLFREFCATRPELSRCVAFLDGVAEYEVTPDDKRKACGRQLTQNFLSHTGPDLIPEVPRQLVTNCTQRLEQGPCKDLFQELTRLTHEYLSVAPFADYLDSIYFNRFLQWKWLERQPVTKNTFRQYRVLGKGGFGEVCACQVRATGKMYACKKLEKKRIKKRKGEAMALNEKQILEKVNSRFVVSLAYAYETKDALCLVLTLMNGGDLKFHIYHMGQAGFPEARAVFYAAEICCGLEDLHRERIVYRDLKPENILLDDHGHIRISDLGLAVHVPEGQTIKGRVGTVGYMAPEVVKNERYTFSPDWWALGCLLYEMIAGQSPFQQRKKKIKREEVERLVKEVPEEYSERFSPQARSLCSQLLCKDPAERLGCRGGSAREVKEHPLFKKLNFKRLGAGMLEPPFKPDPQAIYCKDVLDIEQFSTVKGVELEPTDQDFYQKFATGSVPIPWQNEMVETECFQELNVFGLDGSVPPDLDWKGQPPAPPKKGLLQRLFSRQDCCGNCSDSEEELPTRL

[7] = target: T3, Serine/threonine-protein kinase STK11 (Homo sapiens) (UniProt Q15831); assay: Inhibition of human LKB1 assessed as enzyme activity at 1 uM using LSNLYHQGKFLQTFCGSPLYRRR as substrate preincubated for 20 mins followed by [gamma-33P]-ATP addition and measured after 120 mins by radiometric Hot-SpotSM Kinase assay relative to control
T3 sequence (whole entry): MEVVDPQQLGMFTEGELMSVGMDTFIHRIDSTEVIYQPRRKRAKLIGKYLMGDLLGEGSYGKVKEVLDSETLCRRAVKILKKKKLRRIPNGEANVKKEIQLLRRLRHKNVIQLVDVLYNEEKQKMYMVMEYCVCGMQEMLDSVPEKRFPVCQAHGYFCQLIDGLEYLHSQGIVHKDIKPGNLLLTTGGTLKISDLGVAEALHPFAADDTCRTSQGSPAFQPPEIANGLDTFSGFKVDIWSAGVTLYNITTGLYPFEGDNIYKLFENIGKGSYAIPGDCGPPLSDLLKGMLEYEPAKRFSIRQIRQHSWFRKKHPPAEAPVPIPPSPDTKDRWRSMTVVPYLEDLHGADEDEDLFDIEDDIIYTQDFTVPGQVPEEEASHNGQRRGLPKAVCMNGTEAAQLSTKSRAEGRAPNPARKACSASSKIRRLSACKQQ

Compound	Activity [1]	Activity [2]	Activity [3]	Activity [4]	Activity [5]	Activity [6]	Activity [7]
C[C@H](Nc1ncnc2nc[nH]c12)c1cc2cccc(Cl)c2c(=O)n1-c1ccccc1	103%	97.2%	96.5%	96.6%	95%	96.9%	93%
CC[C@H](Nc1ncnc2[nH]cnc12)c1nc2cccc(F)c2c(=O)n1-c1ccccc1	104%	93.6%	96.2%	96%	102%	99.5%	104%
CC(C)Oc1ccc(-c2nn([C@@H](C)c3oc4ccc(F)cc4c(=O)c3-c3cccc(F)c3)c3ncnc(N)c23)cc1F [UMBRALISIB]	102%	94.2%	91.4%	95.6%	97.8%	102%	100%

— ChEMBL document CHEMBL5715954, “Silencing c-Myc translation as a therapeutic strategy through targeting PI3Kδ and CK1ε in hematological malignancies” (Blood, 2017)
